The nature of assay [1]: Static acid immersion test in 5% w/w H2SO4. As to conditions: 5% w/w H2SO4, 50° C., 24 hours, 2000 ppm w/w active inhibitor. Here is the method: (§1) Static acid immersion tests were used to compare the corrosion inhibition performance of various sulfosuccinates in 5% w/w HCl to the industry standard propargyl alcohol (2-propyn-1-ol) and the corrosion inhibitor Stannine® ETH, which is a blend of amine salts and aliphatic alcohols and is available from Rhodia Novecare.
(§2) • A control solution of 5% w/w HCl was prepared by diluting 37% w/w HCl with deionised water. • An inhibited solution of 5% w/w HCl & 2000 ppm w/w active corrosion inhibitor was then prepared for each of the corrosion inhibitors being evaluated. Stannine® ETH was used at 2000 ppm w/w solids as the active content of Stannine® ETH is unknown. • Each solution was then split evenly between 2 Schott bottles (for duplicate runs) and a pre-weighed C1018 mild steel coupon was placed in each so that it was completely submerged. • The Schott bottles were then sealed tightly and stored for 24 hours in an oven set at 50° C. • After the allotted time the coupons were removed from the oven and cleaned using deionised water, HCl cleaning solution and acetone. The HCl cleaning solution had been made by dissolving 5 g SnCl2 and 2 g SbCl3 in 100 ml of 37% w/w HCl. • The coupons were then oven dried before re-weighing with the average weight change of the duplicate coupons being used to calculate the corrosion rate. The above process was then repeated using (a) 5% w/w H2SO4 and (b) 5% w/w acetic acid instead of HCl.

Assay [2] is described as follows: Static acid immersion test in 5% w/w HCl. The note with it: 50° C., 24 hours, 2000 ppm w/w active inhibitor. As to the method: as §1, §2
Assay [3] can be described thus: Static acid immersion test in 5% w/w acetic acid. The note with it: 50° C., 24 hours, 2000 ppm w/w active inhibitor. Here is the method:
as §1, §2

A short description of assay [4]: Linear Polarisation Resistance (LPR) bubble test, corrosion inhibition under oilfield conditions. The note with it: 20 ppm actives; 5% NaCl brine/Isopar M 9:1; 60° C.; constant CO2; 15 hours. Here is the method:
[formula] where baseline corrosion was calculated by taking the average corrosion rate of each cell before the corrosion inhibitors were introduced.
The same tests as described in Example 1 were carried out on the products set out in Table 3 below.

For the compound `CCCCCCCC/C=C\CCCCCCCC(=O)NCCOC(=O)C(CC(=O)[O-])S(=O)(=O)[O-].[Na+].[Na+]` (stereo not shown) [Disodium oleamido MEA sulfosuccinate], the “% Efficiency” value is given as 65.2% in assay [1], 88.0% in assay [2] and 56.7% in assay [3]. In addition, the Corrosion rate in assay [1] worked out at 669.3 mils/y; in assay [2], 171.5 mils/y; in assay [3], 60.7 mils/y. Also, in assay [4], the “corrosion rate (LPR), in words” value is “significantly reduce corrosion rates, although they do not perform quite as well as the industry standard”.
As for `C#CCO` [Propargyl alcohol, 2-propyn-1-ol, reference compound], the figures for the “% Efficiency” value in assay [1] and in assay [1] (listed as propargyl alcohol) were 18.0% and “not performing well as an inhibitor in this environment”, respectively. Further, the Corrosion rate in assay [1] is 1575.2 mils/y; in assay [2], 9.5 mils/y.
Take Disodium cocamido MIPA sulfosuccinate: the “corrosion rate (LPR), in words” value in assay [4] is “significantly reduce the corrosion rate and have a performance very similar to the industry standard”.
Same read-out and setting: the entry for Disodium laureth sulfosuccinate is “significantly reduce the corrosion rate and have a performance very similar to the industry standard”.
Consider Disodium oleamido MIPA sulfosuccinate, for which the results for the “% Efficiency” value in assay [1], in assay [2] and in assay [3] were 68.4%, 88.5% and 70.9%, respectively. Moreover, the Corrosion rate in assay [1] stood at 607.0 mils/y; in assay [2] it was 163.3 mils/y; in assay [3], 40.9 mils/y. Moreover, in assay [4], the “corrosion rate (LPR), in words” value is “significantly reduce the corrosion rate and have a performance very similar to the industry standard”.
Disodium oleth 9 sulfosuccinate: the “corrosion rate (LPR), in words” value in assay [4] is reported as “significantly reduce corrosion rates, although they do not perform quite as well as the industry standard”.
On to “Disodium ricinoleamido MEA sulfosuccinate”, for which the “% Efficiency” value in assay [1] was 81.1%; in assay [2] it was 84.4%; in assay [3], 77.2%. The Corrosion rate in assay [1] is 362.5 mils/y; in assay [2], 221.4 mils/y; in assay [3], 32.0 mils/y. The “corrosion rate (LPR), in words” value in assay [4] was “significantly reduce the corrosion rate and have a performance very similar to the industry standard”.

For the origin of these results see patent US9752236B2, “Corrosion inhibitors” (Rhodia Operations, priority 2010, dated 2017).
